Active and inactive are the calls of the source. The rule behind the calls is not given here. Bridge positions count the residues as written; N and C are the ends. Square brackets hold non-standard residues; d marks the D form. Peptide text beside a SMILES is read from it. * marks the point of attachment. Decanoyl(3,6,9-trioxa) = COCCOCCOCC(=O)*; Decanoyl = CCCCCCCCCC(=O)*; Heptanoyl = CCCCCCC(=O)*; Orn = NCCC[C@H](N)C(=O)O; Dab = NCC[C@H](N)C(=O)O; Dap = NC[C@H](N)C(=O)O
How the values were obtained:
[1] = target: T1, Receptor-histidine kinase AgrC (Staphylococcus aureus) (UniProt O07911); test: Inhibition of AIP-stimulated quorum sensing system AgrC activation in Staphylococcus aureus RN10829 harboring P3:blaZ fusion assessed as reduction in beta-lactamse activity at 5 ug/ml preincubated with organism followed by AIP addition measured after 45 mins by nitrocefin hydrolysis assay
T1 sequence (whole entry): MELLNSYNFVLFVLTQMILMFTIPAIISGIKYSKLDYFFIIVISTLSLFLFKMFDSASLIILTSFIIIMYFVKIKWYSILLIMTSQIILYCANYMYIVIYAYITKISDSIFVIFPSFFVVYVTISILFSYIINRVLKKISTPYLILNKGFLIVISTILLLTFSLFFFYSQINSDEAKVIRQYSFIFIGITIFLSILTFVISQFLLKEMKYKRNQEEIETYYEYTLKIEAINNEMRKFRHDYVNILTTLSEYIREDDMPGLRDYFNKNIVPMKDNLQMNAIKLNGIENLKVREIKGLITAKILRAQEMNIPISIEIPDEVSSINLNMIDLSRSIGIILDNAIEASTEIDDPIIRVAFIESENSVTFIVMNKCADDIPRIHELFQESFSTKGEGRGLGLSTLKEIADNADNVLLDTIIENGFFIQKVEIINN

[2] = target: T2, Receptor-histidine kinase AgrC (Staphylococcus aureus, UniProt O07911); test: Inhibition of AIP-stimulated quorum sensing system AgrC activation in Staphylococcus aureus RN10829 harboring P3:blaZ fusion assessed as reduction in beta-lactamse activity preincubated with organism followed by AIP addition measured after 45 mins by nitrocefin hydrolysis assay
T2 sequence (O07911 whole entry): T1 sequence (whole entry)

Structure (SMILES) | inhibition [1] | IC50 [2]
CCCCCCC(=O)N[C@@H]1CNC(=O)[C@@H](CC(C)C)NC(=O)[C@@H](C)NC(=O)[C@@H](CC(C)C)NC(=O)[C@@H](Cc2cccc3ccccc23)NC1=O | inactive | –
CCCCCCC(=O)N[C@@H]1CNC(=O)[C@@H](CC(C)C)NC(=O)[C@@H](C)NC(=O)[C@@H](CC(C)C)NC(=O)[C@@H](Cc2ccccc2)NC1=O | Active | 622 nM
CC(=O)N[C@H]1CNC(=O)[C@H](CC(C)C)NC(=O)[C@H](C)NC(=O)[C@H](CC(C)C)NC(=O)[C@H](Cc2ccccc2)NC1=O (Ac-[Dap]FLAL; lactam 1-C) | inactive | –
CCCCCCC(=O)N[C@@H]1CNC(=O)[C@@H](Cc2ccccc2)NC(=O)[C@@H](C)NC(=O)[C@@H](CC(C)C)NC(=O)[C@@H](CC(C)C)NC1=O | inactive | –
CCCCCCC(=O)N[C@@H]1CNC(=O)[C@@H](CC(C)C)NC(=O)[C@@H](C)NC(=O)[C@@H](C)NC(=O)[C@@H](Cc2ccccc2)NC1=O | Active | –
CCCCCCC(=O)N[C@@H]1CNC(=O)[C@@H](CCC(C)C)NC(=O)[C@@H](C)NC(=O)[C@@H](CC(C)C)NC(=O)[C@@H](Cc2ccccc2)NC1=O | Active | 913 nM
CCCCCCC(=O)N[C@H]1CCCCNC(=O)[C@H](CC(C)C)NC(=O)[C@H](C)NC(=O)[C@H](CC(C)C)NC(=O)[C@H](Cc2ccccc2)NC1=O (Heptanoyl-KFLAL; lactam 1-C) | inactive | –
CCCCCCC(=O)N[C@H]1CCNC(=O)[C@H](CC(C)C)NC(=O)[C@H](C)NC(=O)[C@H](CC(C)C)NC(=O)[C@H](Cc2ccccc2)NC1=O (Heptanoyl-[Dab]FLAL; lactam 1-C) | inactive | –
CCCCCCCCCCCC(=O)N[C@@H]1CNC(=O)[C@@H](CC(C)C)NC(=O)[C@@H](C)NC(=O)[C@@H](CC(C)C)NC(=O)[C@@H](Cc2ccccc2)NC1=O | Active | –
CCCCCC(=O)N[C@@H]1CNC(=O)[C@@H](CC(C)C)NC(=O)[C@@H](C)NC(=O)[C@@H](CC(C)C)NC(=O)[C@@H](Cc2ccccc2)NC1=O | Active | 1430 nM
COCCOCCOCC(=O)N[C@H]1CNC(=O)[C@H](CC(C)C)NC(=O)[C@H](C)NC(=O)[C@H](CC(C)C)NC(=O)[C@H](Cc2ccccc2)NC1=O ({Decanoyl(3,6,9-trioxa)}-[Dap]FLAL; lactam 1-C) | inactive | –
CCCCCCC(=O)N[C@@H]1CNC(=O)[C@@H](CC(C)C)NC(=O)[C@@H](C)NC(=O)[C@@H](Cc2ccccc2)NC(=O)[C@@H](Cc2ccccc2)NC1=O | Active | 739 nM
CCCCCCC(=O)N[C@@H]1CNC(=O)[C@@H](C)NC(=O)[C@@H](C)NC(=O)[C@@H](CC(C)C)NC(=O)[C@@H](Cc2ccccc2)NC1=O | Active | 69100 nM
CCCCCCC(=O)N[C@@H]1CNC(=O)[C@@H](CC(C)C)NC(=O)[C@@H](C)NC(=O)[C@@H](CC(C)C)NC(=O)[C@@H](CCc2ccccc2)NC1=O | inactive | –
CCCCCCC(=O)N[C@H]1CNC(=O)[C@H](CC(C)C)NC(=O)[C@@H](C)NC(=O)[C@@H](CC(C)C)NC(=O)[C@H](Cc2ccccc2)NC1=O | inactive | –
CC(=O)NCC(=O)NCC(=O)NCC(=O)N[C@H]1CNC(=O)[C@H](CC(C)C)NC(=O)[C@H](C)NC(=O)[C@H](CC(C)C)NC(=O)[C@H](Cc2ccccc2)NC1=O (Ac-GGG[Dap]FLAL; lactam 4-C) | inactive | –
CCCCCCCC(=O)N[C@@H]1CNC(=O)[C@@H](CC(C)C)NC(=O)[C@@H](C)NC(=O)[C@@H](CC(C)C)NC(=O)[C@@H](Cc2ccccc2)NC1=O | Active | 457 nM
CCCCCCCCCC(=O)N[C@H]1CNC(=O)[C@H](CC(C)C)NC(=O)[C@H](C)NC(=O)[C@H](CC(C)C)NC(=O)[C@H](Cc2ccccc2)NC1=O (Decanoyl-[Dap]FLAL; lactam 1-C) | Active | –
CCCCCCC(=O)N[C@H]1CNC(=O)[C@H](CC(C)C)NC(=O)[C@H](C)NC(=O)[C@H](CC(C)C)NC(=O)[C@H](Cc2ccccc2)NC1=O | Active | 19100 nM
CCCCCCC(=O)N[C@@H]1CNC(=O)[C@@H](CC(C)C)NC(=O)[C@@H](C)NC(=O)[C@@H](CCC(C)C)NC(=O)[C@@H](Cc2ccccc2)NC1=O | Active | 609 nM
CCCCCCC(=O)N[C@@H]1CNC(=O)[C@@H](CC(C)C)NC(=O)[C@@H](CC(C)C)NC(=O)[C@@H](CC(C)C)NC(=O)[C@@H](Cc2ccccc2)NC1=O | inactive | –
CCCCCCC(=O)N[C@@H]1CNC(=O)[C@@H](CC(C)C)NC(=O)CNC(=O)[C@@H](CC(C)C)NC(=O)[C@@H](Cc2ccccc2)NC1=O | inactive | –
CCCCCCC(=O)N[C@@H]1CNC(=O)[C@@H](CC(C)C)NC(=O)[C@@H](C)NC(=O)[C@@H](CC(C)C)NC(=O)[C@@H](Cc2c[nH]c3ccccc23)NC1=O | inactive | –
CCCCCCC(=O)N[C@H]1CCCNC(=O)[C@H](CC(C)C)NC(=O)[C@H](C)NC(=O)[C@H](CC(C)C)NC(=O)[C@H](Cc2ccccc2)NC1=O (Heptanoyl-[Orn]FLAL; lactam 1-C) | inactive | –
CCCCCCC(=O)N[C@H]1CNC(=O)[C@H](Cc2ccccc2)NC(=O)[C@H](C)NC(=O)[C@H](CC(C)C)NC(=O)[C@H](CC(C)C)NC1=O | Active | –
CCCCCCC(=O)N[C@@H]1CNC(=O)[C@@H](CC(C)C)NC(=O)[C@@H](C)NC(=O)[C@@H](CC(C)C)NC(=O)[C@@H](C)NC1=O | Active | –
CCCCCCC(=O)N[C@@H]1CNC(=O)[C@@H](CC(C)C)NC(=O)[C@H](C)NC(=O)[C@H](CC(C)C)NC(=O)[C@@H](Cc2ccccc2)NC1=O | inactive | –

Source: ChEMBL document CHEMBL4152251, “Lactam hybrid analogues of solonamide B and autoinducing peptides as potent S. aureus AgrC antagonists” (Eur J Med Chem, 2018)
